Experimental data from paper PMC12282101, “Heat shock protein 90 chaperone activity is required for hepatitis A virus replication” (Journal of Virology, 2025).
Structures can show the parent of a compound that is named as a salt. Where two headings read alike, the source gives them in different places.

Assays:
Huh-7.5.1 cells [1] = conditions: 10 µM
18f-NLuc reporter virus [2] = assay: microbe, parasite or virus in culture; type: cell-based, Hepatitis A virus; conditions: for activity at 10 µM: Hepatovirus A, Huh-7.5.1, 72 h, read-out: Normalized HAV production
HM175/18f virus [3] = test system: HM175/18f virus
Huh-7.5.1 cells [4] = conditions: Huh-7.5 or Huh-7.5.1 cells, RT-qPCR experiments
in vitro = conditions: human
HM175/18f virus [5] = assay: microbe, parasite or virus in culture; conditions: Hepatovirus A, Huh-7.5.1, read-out: IC50, HAV replication by RT-qPCR
Huh-7.5.1 cells [6] = assay: Cell viability in the chemical screen (Cell TiterGlo); conditions: 10 µM compound, 72 h
18f-NLuc reporter virus [7] = conditions: for IC50: read-out: IC50, HAV replication by NLuc
HAV = conditions: cited from earlier work

NC12CC3CC(CC(C3)C1)C2 [Amantadine hydrochloride]
Viability Percent DMSO (Huh-7.5.1 cells [1]): 111 Percent DMSO | activity at 10 µM (18f-NLuc reporter virus [2]): 87%

CC(C)CN(C[C@@H](O)[C@H](Cc1ccccc1)NC(=O)O[C@H]1CO[C@H]2OCC[C@H]21)S(=O)(=O)c1ccc(N)cc1 [Darunavir]
Viability Percent DMSO (Huh-7.5.1 cells [1]): 106 Percent DMSO | activity at 10 µM (18f-NLuc reporter virus [2]): 99%

C=C1CC[C@@H]2[C@](C)(COC(=O)CCC(=O)[O-])[C@H](OC(=O)CCC(=O)O)CC[C@@]2(C)[C@@H]1/C=C/C1=CCOC1=O.[K+] [Dehydroandrographolide Succinate Potasium Salt]
Viability Percent DMSO (Huh-7.5.1 cells [1]): 102 Percent DMSO | Normalized HAV production (18f-NLuc reporter virus [2]): 1.19

COC(=O)N[C@H](C(=O)NNC[C@H](O)[C@H](Cc1ccccc1)NC(=O)[C@@H](NC(=O)OC)C(C)(C)C)C(C)(C)C [Des(benzylpyridyl) Atazanavi]
Viability Percent DMSO (Huh-7.5.1 cells [1]): 159 Percent DMSO | Normalized HAV production (18f-NLuc reporter virus [2]): 0.67

Nc1nc(=O)n([C@@H]2CS[C@H](CO)O2)cc1F [Emtricitabine]
Viability Percent DMSO (Huh-7.5.1 cells [1]): 123 Percent DMSO | activity at 10 µM (18f-NLuc reporter virus [2]): 120%

COc1cccc(-c2cc(F)ccc2[C@H]2Cc3nc(N)nc(C)c3C(=O)N2)n1 [HSP990]
IC50 (HM175/18f virus [3]; read-out: IC50, HAV replication by RT-qPCR): 2.2 nM | Blocking of HAV replication (in words) (HM175/18f virus [3]; targeted screen of heat shock protein inhibitors, RT-qPCR): highly active | CC50 (Huh-7.5.1 cells [4]): 56.9 nM

CC(C)(C)Oc1cccc2nc(N)nc(N)c12 [HZ-1157]
Viability Percent DMSO (Huh-7.5.1 cells [1]): 16 Percent DMSO | Normalized HAV production (18f-NLuc reporter virus [2]): 2.12

Cc1c(-c2cnccn2)ssc1=S [Oltipraz]
Viability Percent DMSO (Huh-7.5.1 cells [1]): 90 Percent DMSO | activity at 10 µM (18f-NLuc reporter virus [2]): 113%

NC(=O)c1ncn([C@@H]2O[C@H](CO)[C@@H](O)[C@H]2O)n1 [Ribavirin]
Viability Percent DMSO (Huh-7.5.1 cells [1]): 117 Percent DMSO | activity at 10 µM (18f-NLuc reporter virus [2]): 112%

CC(C)c1cc(-c2n[nH]c(=O)n2-c2ccc3c(ccn3C)c2)c(O)cc1O [STA9090]
Blocking of HAV replication (in words) (HM175/18f virus [3]): highly active | CC50 (in vitro): 147 nM | IC50 (HM175/18f virus [5]): 12.1 nM

NCCCNCCCCNCCCN [Spermine]
Viability Percent DMSO (Huh-7.5.1 cells [1]): 112 Percent DMSO | activity at 10 µM (18f-NLuc reporter virus [2]): 96%

CCc1cc(C(N)=O)ccc1-n1nc(C(C)C)c2c(-n3cnc(-c4cnn(C)c4)c3)ccnc21 [TAS116]
Blocking of HAV replication (in words) (HM175/18f virus [3]): highly active | CC50 (in vitro): 835 nM | IC50 (HM175/18f virus [5]): 84.3 nM

CC(C)OC(=O)[C@H](C)N[P@](=O)(CO[C@H](C)Cn1cnc2c(N)ncnc21)Oc1ccccc1 [Tenofovir alafenamide]
Viability Percent DMSO (Huh-7.5.1 cells [1]): 75 Percent DMSO | activity at 10 µM (18f-NLuc reporter virus [2]): 141%

O=C(Nc1ncc([N+](=O)[O-])s1)c1ccccc1O [Tizoxanide]
Viability Percent DMSO (Huh-7.5.1 cells [6]): 72 Percent DMSO | activity at 10 µM (18f-NLuc reporter virus [2]): 113%

O=c1[nH]c(=O)n([C@H]2C[C@H](O)[C@@H](CO)O2)cc1C(F)(F)F [Trifluridine]
Viability Percent DMSO (Huh-7.5.1 cells [6]): 96 Percent DMSO | activity at 10 µM (18f-NLuc reporter virus [2]): 107%

S=C(NCCc1ccccn1)Nc1ccc(Br)cn1 [Trovirdine]
Viability Percent DMSO (Huh-7.5.1 cells [1]): 165 Percent DMSO | activity at 10 µM (18f-NLuc reporter virus [2]): 71%

CC(C)OC(=O)C1=CN(C(=O)c2ccc(F)c(F)c2)CC(C)(C)c2c1[nH]c1ccccc21 [Turofexorate Isopropyl]
Viability Percent DMSO (Huh-7.5.1 cells [6]): 161 Percent DMSO | activity at 10 µM (18f-NLuc reporter virus [2]): 100%

N#Cc1ccc(COC[C@H]2O[C@@H](n3c(NCc4ccc(Cl)c(Cl)c4)nc4c(N)ncnc43)[C@H](O)[C@@H]2O)cc1 [VER155008]
Anti-HAV activity relative to CC50 (in words) (18f-NLuc reporter virus [7]): only at concentrations close to their CC50 | IC50 (18f-NLuc reporter virus [7]): 3320 nM | CC50 (Huh-7.5 cells): > 10000 nM

Clc1ccc(C(Cn2ccnc2)OCc2ccsc2Cl)c(Cl)c1 (stereo not drawn) [Vagistat]
Viability Percent DMSO (Huh-7.5.1 cells [1]): 93 Percent DMSO | activity at 10 µM (18f-NLuc reporter virus [2]): 109%

CC(C)[C@H](N)C(=O)OCCOCn1cnc2c(=O)[nH]c(N)nc21 [Valacyclovir hydrochloride]
Viability Percent DMSO (Huh-7.5.1 cells [6]): 117 Percent DMSO | activity at 10 µM (18f-NLuc reporter virus [2]): 87%

CC(C)[C@H](N)C(=O)OCC(CO)OCn1cnc2c(=O)nc(N)[nH]c21 (stereo partly drawn) [Valganciclovir hydrochloride]
Viability Percent DMSO (Huh-7.5.1 cells [6]): 110 Percent DMSO | activity at 10 µM (18f-NLuc reporter virus [2]): 90%

COC[C@H]1C[C@@H](c2ncc(-c3ccc4c(c3)COc3cc5c(ccc6nc([C@@H]7CC[C@H](C)N7C(=O)[C@@H](NC(=O)OC)C(C)C)[nH]c65)cc3-4)[nH]2)N(C(=O)[C@H](NC(=O)OC)c2ccccc2)C1 [Velpatasvir]
Viability Percent DMSO (Huh-7.5.1 cells [6]): 121 Percent DMSO | activity at 10 µM (18f-NLuc reporter virus [2]): 52%

O=C(/C=C\n1cnc(-c2cc(C(F)(F)F)cc(C(F)(F)F)c2)n1)NNc1ccccn1 [Verdinexor]
Viability Percent DMSO (Huh-7.5.1 cells [6]): 174 Percent DMSO | activity at 10 µM (18f-NLuc reporter virus [2]): 22%

Nc1ncnc2c1ncn2[C@@H]1O[C@H](CO)[C@@H](O)[C@@H]1O [Vidarabine]
Viability Percent DMSO (Huh-7.5.1 cells [6]): 119 Percent DMSO | activity at 10 µM (18f-NLuc reporter virus [2]): 104%

CC(=O)Oc1c(C)c(C)c2c(c1C)CCC(C)(CCC[C@H](C)CCC[C@H](C)CCCC(C)C)O2 (stereo partly drawn) [Vitamin E Acetate]
Viability Percent DMSO (Huh-7.5.1 cells [6]): 82 Percent DMSO | activity at 10 µM (18f-NLuc reporter virus [2]): 133%

C[C@@H](c1ncncc1F)[C@](O)(Cn1cncn1)c1ccc(F)cc1F [Voriconazole]
Viability Percent DMSO (Huh-7.5.1 cells [6]): 123 Percent DMSO | activity at 10 µM (18f-NLuc reporter virus [2]): 133%

COc1cc(O)c(CC=C(C)C)c(O)c1C(=O)/C=C/c1ccc(O)cc1 [Xanthohumol]
Viability Percent DMSO (Huh-7.5.1 cells [6]): 102 Percent DMSO | activity at 10 µM (18f-NLuc reporter virus [2]): 92%

Cc1ccc(NC(=O)C(=O)NC2CC(C)(C)NC(C)(C)C2)cc1 [YYA-021]
Viability Percent DMSO (Huh-7.5.1 cells [1]): 121 Percent DMSO | Normalized HAV production (18f-NLuc reporter virus [2]): 1.03

Nc1ccn([C@H]2CC[C@@H](CO)O2)c(=O)n1 [Zalcitabine]
Viability Percent DMSO (Huh-7.5.1 cells [6]): 99 Percent DMSO | activity at 10 µM (18f-NLuc reporter virus [2]): 98%

Cc1cn([C@H]2C[C@H](N=[N+]=[N-])[C@@H](CO)O2)c(=O)[nH]c1=O [Zidovudine]
Viability Percent DMSO (Huh-7.5.1 cells [6]): 92 Percent DMSO | activity at 10 µM (18f-NLuc reporter virus [2]): 131%

COc1ccccc1[C@H](Cn1c(=O)n(C(C)(C)C(=O)O)c(=O)c2c(C)c(-c3ncco3)sc21)OC1CCOCC1 [firsocostat]
HAV replication in cell culture (in words) (HAV): potently inhibits

Darunavir Ethanolate
Viability Percent DMSO (Huh-7.5.1 cells [6]): 111 Percent DMSO | Normalized HAV production (18f-NLuc reporter virus [2]): 1.54

JG98
Anti-HAV activity relative to CC50 (in words) (18f-NLuc reporter virus [7]): only at concentrations close to their CC50 | IC50 (18f-NLuc reporter virus [7]): 534 nM | CC50 (Huh-7.5 cells): > 1000 nM

Vitamin E
Viability Percent DMSO (Huh-7.5.1 cells [1]): 97 Percent DMSO | Normalized HAV production (18f-NLuc reporter virus [2]): 1.19
